Assay results from patent US7179825B2, “Retinoic acid mimetic anilides” (Janssen Pharmaceutica N.V., priority 1997, dated 2007).

tested on: Ovariectomized rats; assay: Vaginal keratinization test on ovariectomized rats (Example C.2); format: in vivo; conditions: estradiol undecylate induced keratinization, per os once daily on days 1-3, active dose = 50% of rats show complete suppression
Outline: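 Value is the lowest oral dose (mg/kg) at which half of tested rats show complete suppression of estradiol undecylate-induced vaginal keratinization by histology. Ovariectomized rats received 100 μg/100 g estradiol undecylate s.c., then compound or PEG 200 vehicle p.o. daily for three days; sacrifice one day later.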

Compound	LAD (lowest active dose) [mg/kg]
COc1ccccc1OCC(=O)Nc1ccc(C(C(C)N(C)C)n2ccnc2)cc1 (single isomer, unassigned) [Compound 351]	>5.00
CCC(CC)C(c1ccc(NC(=O)Cc2ccc(O)c(OC)c2)cc1)n1cncn1 (racemic) [Compound 72]	2.50
CC(C)C(c1ccc(NC(=O)c2cccn2C)cc1)n1ccnc1 (stereo not drawn) [Compound 195]	>10.00
CCC(CC)C(c1ccc(NC(=O)Nc2nc3ccccc3s2)cc1)n1cncn1 (racemic) [Compound 63]	>5.00
CC(C(c1ccc(NC(=O)Cc2ccc(Cl)cc2)cc1)n1ccnc1)N1CCCCC1 (single isomer, unassigned) [Compound 366]	>10.00
CN(C)CC(c1ccc(NC(=O)Oc2ccccc2)cc1)n1ccnc1 (racemic) [Compound 435]	>2.50
CCC(CC)C(c1ccc(NC(=O)Cc2ccc(O)c(OC)c2)cc1)n1ccnc1.O=C(O)C(=O)O (racemic) [Compound 97]	2.50
CC(C)C(c1ccc(NC(=O)CSc2ncccn2)cc1)n1ccnc1 (stereo not drawn) [Compound 224]	>10.00
C/C(=C\c1ccccc1)C(=O)Nc1ccc(C(C2CCCCC2)n2ccnc2)cc1 (racemic) [Compound 463]	20.00
CC(C)C(c1ccc(NC(=O)c2csc(-c3ccccc3)n2)cc1)n1ccnc1 (racemic) [Compound 186]	>10.00
CCC(CC)C(c1ccc(NC(=O)CCc2ccc(OC)c(OC)c2)cc1)n1ccnc1 (racemic) [Compound 32]	5.00
CC(C(=O)Nc1ccc(C(C(C)C)n2ccnc2)cc1)=C(c1ccccc1)c1ccsc1 (mixture of isomers) [Compound 518]	>10.00
CCC(CC)C(c1ccc(NC(=O)Cc2cc(C)c(C)c(C)c2)cc1)n1cncn1 (racemic) [Compound 81]	2.50
CCC(CC)C(c1ccc(NC(=O)Cc2cccc(O)c2)cc1)n1cncn1 (racemic) [Compound 67]	2.50
C/C(=C\c1ccc(C)o1)C(=O)Nc1ccc(C(C(C)C)n2ccnc2)cc1 (racemic) [Compound 601]	10.00
CCOc1ccc(CC(=O)Nc2ccc(C(C(C)N(C)C)n3ccnc3)cc2)cc1OCC (single isomer, unassigned) [Compound 301]	>2.50
CCC(CC)C(c1ccc(NC(=O)Cc2ccc(O)c(Cl)c2)cc1)n1cncn1 (racemic) [Compound 79]	2.50
CC(C)C(c1ccc(NC(=O)Nc2cccnc2)cc1)n1ccnc1 (racemic) [Compound 270]	>10.00
CCC(CC)C(c1ccc(NC(=O)Nc2nc3ccccc3s2)cc1)n1ccnc1 (racemic) [Compound 64]	>5.00
COc1ccc(CC(=O)Nc2ccc(C(C(C)C)(C(C)C)n3ccnc3)cc2)cc1OC [Compound 762]	>5.00
C/C(=C\c1ccc(C(F)(F)F)cc1)C(=O)Nc1ccc(C(C(C)C)n2ccnc2)cc1 (stereo not drawn) [Compound 580]	10.00
CC(C)C(c1ccc(NC(=O)Cc2ccccn2)cc1)n1ccnc1 (racemic) [Compound 247]	10.00
CCC(c1ccc(NC(=O)C(C)=Cc2ccccc2)cc1)(C(C)C)n1ccnc1 (stereo not drawn) [Compound 758]	>5.00
C/C(=C\c1ccc(F)c(Br)c1)C(=O)Nc1ccc(C(C(C)C)n2ccnc2)cc1 (racemic) [Compound 608]	>10.00
CCC(CC)C(c1ccc(NC(=O)c2nc3ccccc3s2)cc1)n1ccnc1.O=C(O)C(=O)O (stereo not drawn) [Compound 778]	5.00
COC(C(=O)Nc1ccc(C(C(C)C)n2ccnc2)cc1)c1ccccc1 (mixture of isomers) [Compound 670]	>2.50
CCC(c1ccc(NC(=O)/C(C)=C/c2ccccc2)cc1)n1ccnc1 (racemic) [Compound 460]	>20.00

Compound	LAD (lowest active dose) [mg/kg]
CCC(CC)C(c1ccc(NC(=O)CCCc2ccc(OC)c(OC)c2)cc1)n1ccnc1 (racemic) [Compound 52]	2.50
CCC(CC)C(c1ccc(NC(=O)Cc2ccc(F)cc2)cc1)n1ccnc1 (racemic) [Compound 88]	2.50
CCC(C(=O)Nc1ccc(C(C(C)C)n2ccnc2)cc1)c1ccccc1 (mixture of isomers) [Compound 660]	>10.00
CC(C)C(c1ccc(NC(=O)C2(C)CCCCC2)cc1)n1ccnc1 (racemic) [Compound 201]	>10.00
CC(C)C(c1ccc(NC(=O)Cc2ccc3c(c2)OCCO3)cc1)n1ccnc1 (racemic) [Compound 255]	5.00
CCC(CC)C(c1ccc(NC(=O)Nc2cccc(F)c2)cc1)n1cncn1 (racemic) [Compound 723]	5.00
CC(C)C(c1ccc(NC(=O)C2CSc3ccccc3O2)cc1)n1ccnc1 (racemic) [Compound 243]	10.00
CC(C)C(c1ccc(NC(=O)c2cccc3ccccc23)cc1)n1ccnc1 (stereo not drawn) [Compound 182]	10.00
CC(C)C(c1ccc(NC(=O)Cc2ccc(Cl)cc2Cl)cc1)n1ccnc1 (stereo not drawn) [Compound 141]	>10.00
CCC(CC)C(c1ccc(NC(=O)Cc2ccc(OC(C)C)cc2)cc1)n1ccnc1 (racemic) [Compound 92]	5.00
COc1ccc(CC(=O)Nc2ccc(C(C(C)N(C)C)n3cncn3)cc2)cc1Cl (single isomer, unassigned) [Compound 288]	>2.50
CC(C)C(c1ccc(NC(=O)C2CC2c2ccccc2)cc1)n1ccnc1.O=C(O)C(=O)O (mixture of isomers) [Compound 204]	>10.00
Cc1noc(C)c1C(=O)Nc1ccc(C(C(C)C)n2ccnc2)cc1 (racemic) [Compound 242]	>10.00
C/C(=C\c1ccnc2ccccc12)C(=O)Nc1ccc(C(C(C)C)n2ccnc2)cc1 (racemic) [Compound 592]	>10.00
CC(=O)Nc1ccc(C(c2cccc(C(F)(F)F)c2)n2cncn2)cc1 (stereo not drawn) [Compound 613]	>20.00
CCC(CC)C(c1ccc(NC(=O)Cc2ccc(OC)c(C)c2)cc1)n1cncn1 (single isomer, unassigned) [Compound 85]	2.50
O=C(Nc1ccc(C(c2cccc(C(F)(F)F)c2)n2cncn2)cc1)Nc1cccc(F)c1 (racemic) [Compound 711]	5.00
CC(C)C(c1ccc(NC(=O)C2=Cc3ccccc3OC2)cc1)n1ccnc1 (racemic) [Compound 254]	>5.00
Cc1cc(CC(=O)Nc2ccc(C(C(C)N(C)C)n3cncn3)cc2)cc(C)c1C (single isomer, unassigned) [Compound 291]	>2.50
CC(C)C(c1ccc(NC(=S)Nc2ccccc2)cc1)n1ccnc1 (racemic) [Compound 697]	10.00
CC(C)C(c1ccc(NC(=O)Nc2ccncc2)cc1)n1ccnc1 (racemic) [Compound 275]	>10.00
C/C(=C\c1ccc(F)cc1)C(=O)Nc1ccc(C(C(C)C)n2ccnc2)cc1 (racemic) [Compound 583]	10.00
CCCCC(CC)C(c1ccc(NC(=O)C(C)=Cc2ccccc2)cc1)n1ccnc1 (mixture of isomers) [Compound 493]	>2.50
CC(C(c1ccc(NC(=O)CN2CCN(C)CC2)cc1)n1ccnc1)N(C)C (single isomer, unassigned) [Compound 353]	>5.00
CCC(CC)C(c1ccc(NC(=O)Cc2ccccc2C)cc1)n1ccnc1 (racemic) [Compound 104]	2.50
O=C(Nc1ccc(C(c2ccc(Cl)cc2)n2ccnc2)cc1)C(O)c1ccccc1 (stereo not drawn) [Compound 423]	20.00
CC(C)(C)CC(c1ccc(NC(=O)Cc2ccc(Cl)cc2)cc1)n1cncn1 (racemic) [Compound 623]	>5.00

tested on: metabolism of retinoic acid in human breast cancer cells; assay: Inhibition of retinoic acid (RA) metabolism (Example C.1); format: cell-based; conditions: MCF-7 human breast cancer cells, 3H-RA as substrate; concentration needed to reduce the amount of metabolites to 50% of the control
Outline: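 Test compound (in 1% DMSO) added at several concentrations to MCF-7 cell suspensions fed ³H-RA, after RA induction of metabolism one day earlier. Scintillation counting of the separated polar metabolite fraction; IC50 = concentration giving 50% of control metabolite level.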

Compound	IC50 [nM]
CC(C)C(c1ccc(NC(=O)c2cccn2C)cc1)n1ccnc1 (stereo not drawn) [Compound 195]	35.1
CN(C)CC(c1ccc(NC(=O)Oc2ccccc2)cc1)n1ccnc1 (racemic) [Compound 435]	2.8
C/C(=C\c1ccccc1)C(=O)Nc1ccc(C(C2CCCCC2)n2ccnc2)cc1 (racemic) [Compound 463]	24.5
CC(C)C(c1ccc(NC(=O)c2csc(-c3ccccc3)n2)cc1)n1ccnc1 (racemic) [Compound 186]	> 100
CC(C(=O)Nc1ccc(C(C(C)C)n2ccnc2)cc1)=C(c1ccccc1)c1ccsc1 (mixture of isomers) [Compound 518]	> 100
CC(C)C(c1ccc(NC(=O)Nc2cccnc2)cc1)n1ccnc1 (racemic) [Compound 270]	5.61
CCC(CC)C(c1ccc(NC(=O)Nc2nc3ccccc3s2)cc1)n1ccnc1 (racemic) [Compound 64]	6.6
C/C(=C\c1ccc(C(F)(F)F)cc1)C(=O)Nc1ccc(C(C(C)C)n2ccnc2)cc1 (stereo not drawn) [Compound 580]	31.3
CCC(c1ccc(NC(=O)C(C)=Cc2ccccc2)cc1)(C(C)C)n1ccnc1 (stereo not drawn) [Compound 758]	1.88
C/C(=C\c1ccc(F)c(Br)c1)C(=O)Nc1ccc(C(C(C)C)n2ccnc2)cc1 (racemic) [Compound 608]	6.61
CCC(CC)C(c1ccc(NC(=O)c2nc3ccccc3s2)cc1)n1ccnc1.O=C(O)C(=O)O (stereo not drawn) [Compound 778]	75.9
COC(C(=O)Nc1ccc(C(C(C)C)n2ccnc2)cc1)c1ccccc1 (mixture of isomers) [Compound 670]	5.72
CCC(c1ccc(NC(=O)/C(C)=C/c2ccccc2)cc1)n1ccnc1 (racemic) [Compound 460]	36.3
CCC(C(=O)Nc1ccc(C(C(C)C)n2ccnc2)cc1)c1ccccc1 (mixture of isomers) [Compound 660]	6.37
CC(C)C(c1ccc(NC(=O)C2(C)CCCCC2)cc1)n1ccnc1 (racemic) [Compound 201]	3.58
CC(C)C(c1ccc(NC(=O)C2CSc3ccccc3O2)cc1)n1ccnc1 (racemic) [Compound 243]	35.9
CC(C)C(c1ccc(NC(=O)c2cccc3ccccc23)cc1)n1ccnc1 (stereo not drawn) [Compound 182]	13.1
CC(C)C(c1ccc(NC(=O)C2CC2c2ccccc2)cc1)n1ccnc1.O=C(O)C(=O)O (mixture of isomers) [Compound 204]	4.58
C/C(=C\c1ccnc2ccccc12)C(=O)Nc1ccc(C(C(C)C)n2ccnc2)cc1 (racemic) [Compound 592]	4.15
CC(C)C(c1ccc(NC(=O)C2=Cc3ccccc3OC2)cc1)n1ccnc1 (racemic) [Compound 254]	6.47
CC(C)C(c1ccc(NC(=S)Nc2ccccc2)cc1)n1ccnc1 (racemic) [Compound 697]	17.1
CC(C)C(c1ccc(NC(=O)Nc2ccncc2)cc1)n1ccnc1 (racemic) [Compound 275]	4.28
C/C(=C\c1ccc(F)cc1)C(=O)Nc1ccc(C(C(C)C)n2ccnc2)cc1 (racemic) [Compound 583]	2.78
CCCCC(CC)C(c1ccc(NC(=O)C(C)=Cc2ccccc2)cc1)n1ccnc1 (mixture of isomers) [Compound 493]	8.77
O=C(Nc1ccc(C(c2ccc(Cl)cc2)n2ccnc2)cc1)C(O)c1ccccc1 (stereo not drawn) [Compound 423]	40.8

Now from value to molecule:

IC50 [nM]	Compound
5.69	COc1ccccc1OCC(=O)Nc1ccc(C(C(C)N(C)C)n2ccnc2)cc1 (single isomer, unassigned) [Compound 351]
1.66	CCC(CC)C(c1ccc(NC(=O)Cc2ccc(O)c(OC)c2)cc1)n1cncn1 (racemic) [Compound 72]
6.7	CCC(CC)C(c1ccc(NC(=O)Nc2nc3ccccc3s2)cc1)n1cncn1 (racemic) [Compound 63]
3.05	CC(C(c1ccc(NC(=O)Cc2ccc(Cl)cc2)cc1)n1ccnc1)N1CCCCC1 (single isomer, unassigned) [Compound 366]
1.32	CCC(CC)C(c1ccc(NC(=O)Cc2ccc(O)c(OC)c2)cc1)n1ccnc1.O=C(O)C(=O)O (racemic) [Compound 97]
4.73	CC(C)C(c1ccc(NC(=O)CSc2ncccn2)cc1)n1ccnc1 (stereo not drawn) [Compound 224]
0.697	CCC(CC)C(c1ccc(NC(=O)CCc2ccc(OC)c(OC)c2)cc1)n1ccnc1 (racemic) [Compound 32]
0.231	CCC(CC)C(c1ccc(NC(=O)Cc2cc(C)c(C)c(C)c2)cc1)n1cncn1 (racemic) [Compound 81]
0.334	CCC(CC)C(c1ccc(NC(=O)Cc2cccc(O)c2)cc1)n1cncn1 (racemic) [Compound 67]
20	C/C(=C\c1ccc(C)o1)C(=O)Nc1ccc(C(C(C)C)n2ccnc2)cc1 (racemic) [Compound 601]
6.05	CCOc1ccc(CC(=O)Nc2ccc(C(C(C)N(C)C)n3ccnc3)cc2)cc1OCC (single isomer, unassigned) [Compound 301]
0.0342	CCC(CC)C(c1ccc(NC(=O)Cc2ccc(O)c(Cl)c2)cc1)n1cncn1 (racemic) [Compound 79]
40.8	COc1ccc(CC(=O)Nc2ccc(C(C(C)C)(C(C)C)n3ccnc3)cc2)cc1OC [Compound 762]
35.5	CC(C)C(c1ccc(NC(=O)Cc2ccccn2)cc1)n1ccnc1 (racemic) [Compound 247]
0.907	CCC(CC)C(c1ccc(NC(=O)CCCc2ccc(OC)c(OC)c2)cc1)n1ccnc1 (racemic) [Compound 52]
0.148	CCC(CC)C(c1ccc(NC(=O)Cc2ccc(F)cc2)cc1)n1ccnc1 (racemic) [Compound 88]
6.24	CC(C)C(c1ccc(NC(=O)Cc2ccc3c(c2)OCCO3)cc1)n1ccnc1 (racemic) [Compound 255]
1.13	CCC(CC)C(c1ccc(NC(=O)Nc2cccc(F)c2)cc1)n1cncn1 (racemic) [Compound 723]
1.31	CC(C)C(c1ccc(NC(=O)Cc2ccc(Cl)cc2Cl)cc1)n1ccnc1 (stereo not drawn) [Compound 141]
2.21	CCC(CC)C(c1ccc(NC(=O)Cc2ccc(OC(C)C)cc2)cc1)n1ccnc1 (racemic) [Compound 92]
1.28	COc1ccc(CC(=O)Nc2ccc(C(C(C)N(C)C)n3cncn3)cc2)cc1Cl (single isomer, unassigned) [Compound 288]
2.82	Cc1noc(C)c1C(=O)Nc1ccc(C(C(C)C)n2ccnc2)cc1 (racemic) [Compound 242]
1800	CC(=O)Nc1ccc(C(c2cccc(C(F)(F)F)c2)n2cncn2)cc1 (stereo not drawn) [Compound 613]
3.92	CCC(CC)C(c1ccc(NC(=O)Cc2ccc(OC)c(C)c2)cc1)n1cncn1 (single isomer, unassigned) [Compound 85]
> 100	O=C(Nc1ccc(C(c2cccc(C(F)(F)F)c2)n2cncn2)cc1)Nc1cccc(F)c1 (racemic) [Compound 711]
4.23	Cc1cc(CC(=O)Nc2ccc(C(C(C)N(C)C)n3cncn3)cc2)cc(C)c1C (single isomer, unassigned) [Compound 291]
1.97	CC(C(c1ccc(NC(=O)CN2CCN(C)CC2)cc1)n1ccnc1)N(C)C (single isomer, unassigned) [Compound 353]
0.0407	CCC(CC)C(c1ccc(NC(=O)Cc2ccccc2C)cc1)n1ccnc1 (racemic) [Compound 104]
1.38	CC(C)(C)CC(c1ccc(NC(=O)Cc2ccc(Cl)cc2)cc1)n1cncn1 (racemic) [Compound 623]
